Measurements published in patent US20190269132A1 (ROHM AND HAAS COMPANY, priority 2016, published 2019).

Tested on: Chlorella sp. ATCC 7516
Assay: Algal efficacy testing of dry paint films (modified ASTM 5589, 6-well plates)
Format: cell-based
Method: These paints were then diluted with a biocide free acrylic/silicone based paint and mixed to prepare targeted concentrations of biocide combinations for the testing. The total biocides concentrations obtained were 125, 250, 500, 1000, 2000 and 5000 ppm. After biocides addition or dilution, the paints were mixed 90 seconds with the horse power shaker (AXEL 75M3372/Agitateur SO-10MI) until uniformity was achieved. […] After one day, the paints were applied to Schleicher & Schuell filter paper at 280 μm wet film thickness and dried for 3 days at room temperature avoiding direct exposure to sunlight. Square discs (1.8 cm×1.8 cm) were cut out from each panel and were used as the substrate for algal efficacy tests. This sample size allowed for an agar border when the sample disc was placed into the well of the test plate.
Algal efficacy was tested according to modified ASTM 5589 which is a standard accelerated test method for determining resistance of various coatings (including paints) to algal defacement. To accommodate for high-throughput screening, this method was scaled down from petri plates to 6-well plates. Bold Modified Basal Freshwater Nutrient Solution was used as growth medium for the algal culture and Bold's agar was used for the efficacy testing. A single coupon was placed with a pair of sterile forceps at the center of the agar plug (on top) with the painted surface facing upwards. The algal inoculum was prepared by diluting an exponentially growing culture of Chlorella sp. to 1×10^6 cfu/ml.
Each well that contains a tested coupon was inoculated with 1750 μl of algal suspension (1×10^6 cfu/ml) making sure that the whole surface (paint film as well as the agar surrounding it) was evenly covered. The plates were incubated at room temp (21° C.-25° C.) with cyclic exposure to 14 hours fluorescent light followed by 10 hours darkness, for a period of three weeks.
At the end of the incubation period the samples were scored for percent inhibition regarding color intensity compared to the blank sample
The SI is calculated based on F. C. Kull et. […]

SMILES	inhibition at 5000 ppm (504 h, Chlorella, total conc 5000 ppm in paint, three weeks, colour intensity vs blank) [%]	Total conc, ppm (lowest total biocide concentration in paint reaching pass level of 75% inhibition) (Chlorella sp., acrylic/silicone paint film on filter paper, three weeks incubation, pass level ≥75% inhibition) [ppm]	% inhibition (Chlorella, total conc 1′000 ppm in paint, three weeks, colour intensity vs blank) [%]
O=c1[nH]sc2ccccc12 [BIT, 1,2-benzisothiazol-3(2H)-one]	95	5000	–
O=c1[nH]c2c(c(=O)n1C1CCCCC1)CCC2 [LENACIL, 3-Cyclohexyl-6,7-dihydro-1H-cyclopentapyrimidine-2,4-(3H,5H)-dione]	–	–	90
